Converted amounts (≈) assume the structure as drawn.
Legend:
Assay type in all cases: cell-based
Aspergillus niger = assay: Minimum inhibitory concentration, dilution test, germ 5; details: 144 h, 9 × 10^5 organisms/ml, 6 days at 30° C.
Method: (§1) In order to measure the antimicrobial efficacy of the above-named ω-aminocarboxylic acid amides, their inhibitory effect upon the subsequently listed bacteria and fungi, as well as upon the germs in contaminated process water was determined.
5) Aspergillus niger 9 × 10^5 organisms/ml
(§2) The minimum inhibitory concentrations of the products to be tested were determined by means of the dilution test according to the standards for the examination of chemical disinfectants which had been published in 1959 by the Deutsche Gesellschaft fur Hygiene und Mikrobiologie (German Association for Hygiene and Microbiology). The tests were carried out in test tubes which were filled with Standard-I-Broth (Merck) or with beer wort (8° Be) and diluted 1:5 with tap water. After the addition of the active substances, the volume of the nutrient solution in the test tubes was adjusted to 10 ml. Next, the test tubes were inoculated with 0.1 ml test organism suspension. In the case of bacteria, the inoculated test tubes were incubated in the incubator for 3 days at 37° C. and in the case of fungi, they incubated for 6 days at 30° C. Subsequently, the concentration of the compound added to the nutrient medium which was just able to inhibit completely the growth of the germs was determined. The value thus determined was designated as the minimum inhibitory concentration (m.i.c.). The following concentration intervals were used for the tests: 1,000 ppm, 750 ppm, 500 ppm, 250 ppm, 100 ppm, 50 ppm, 25 ppm, 10 ppm, 7.5 ppm, 5 ppm, 2.5 ppm, and 1 ppm.
(§3) The inhibitory concentrations of the individual products for the above-quoted germs which were determined in this dilution test are listed in the following Table III.

Escherichia coli [1] = assay: Microbicidal effect, suspension test, germ 2; details: 18° C. to 21° C.
Method: (§4) The microbicidal effect of some products named above was determined by means of the suspension test. The methodology of this testing procedure has been taken from the standards for the testing of chemical disinfectants, published in 1959 by the German Association for Hygiene and Microbiology. In conformity with these standards, 0.1 ml of a test organism suspension of the following enumerated bacteria or fungi was pipetted into test tubes at 18° C. to 21° C.
(§5) 2) Escherichia coli 4 × 10^7 organisms/ml
(§6) The products of the invention to be tested were dissolved in tap water of 16° dH (German degrees of hardness). Then, 10 ml of the respective dilution quantity of the product to be tested were added to each test tube. The concentrations of the products according to the invention were 100 ppm, 250 ppm and 500 ppm in each case. After a duration of action amounting to 1, 2.5, 5, 10, 20, 30 and 60 minutes, a loop of material was taken from each test tube and inoculated in 10 ml of nutrient solution which contained 3% Tween and 0.3% Lecithin as de-inhibitors. The nutrient solutions inoculated with bacteria were incubated at 37° C. whereas the nutrient solutions inoculated with fungi were incubated at 30° C. After 6 days, the growth of the cultures was macroscopically evaluated.

Escherichia coli [2] = assay: Minimum inhibitory concentration, dilution test, germ 2; details: 72 h, 4 × 10^7 organisms/ml, 3 days at 37° C.
Method: as §1, §5, §2, §3

Staphylococcus aureus [3] = assay: Minimum inhibitory concentration, dilution test, germ 1; details: 72 h, 5 × 10^7 organisms/ml, 3 days at 37° C.
Method: as §1
(§7) 1) Staphylococcus aureus
as §2, §3

Candida albicans = assay: Minimum inhibitory concentration, dilution test, germ 4; details: 144 h, 2 × 10^6 organisms/ml, 6 days at 30° C.
Method: as §1
4) Candida albicans 2 × 10^6 organisms/ml
as §2, §3

[4] = system: Mixture of contaminated water from 3 scrubbers of air conditioning installations; assay: Minimum inhibitory concentration, dilution test, germ 7
Method: as §1
7) Mixture of contaminated water
from 3 scrubbers of air con-
ditioning installations
as §2, §3

[5] = system: Mixture of contaminated water from 3 cooling towers; assay: Minimum inhibitory concentration, dilution test, germ 6
Method: as §1
6) Mixture of contaminated water
as §2, §3

Pseudomonas aeruginosa [6] = assay: Microbicidal effect, suspension test, germ 3; details: 18° C. to 21° C.
Method: as §4
(§8) 3) Pseudomonas aeruginosa
as §6

Pseudomonas aeruginosa [7] = assay: Minimum inhibitory concentration, dilution test, germ 3; details: 72 h, 4 × 10^7 organism/ml, 3 days at 37° C.
Method: as §1, §8, §2, §3

Staphylococcus aureus [8] = assay: Microbicidal effect, suspension test, germ 1; details: 18° C. to 21° C.
Method: as §4, §7, §6

[9] = system: Desulfovibrio desulfuricans; assay: Inhibition of the growth of sulfate-reducing bacteria; details: 672 h, 6× 10^5 organisms/ml, 37° C., 4 weeks, pH 7.4, read-out: Inhibitory Concentration, growth of Desulfovibrio Desulfuricans
Method: The minimum inhibitory concentrations were determined in 50 ml screw-top bottles. The bottles were charged with an optimum nutrient solution for the growth of sulfate-reducing bacteria of the following composition:
which compounds were dissolved in 1000 ml of distilled water. The pH value of the nutrient solution was 7.4.
After various concentrations of the products to be tested had been added, 1 ml of a pure culture of Desulfovibrio desulfuricans 6× 10^5 organisms/ml was used for inoculation, followed by incubation at 37° C. for 4 weeks. The following concentration intervals were used for the tests: 100 ppm, 50 ppm, 40 ppm, 30 ppm, 20 ppm, 10 ppm, 5 ppm, 2.5 ppm, and 1 ppm.
In this test, the minimum inhibitory concentrations listed in the following Table VI were determined for the individual products.

[10] = system: mixed suspension of Scenedesmus obliquus and Chlorella vulgaris; assay: Efficacy in inhibiting growth of algae; details: 168 h; after 7 days, pH 7.2; read-out: Minimum Inhibitory Concentration, growth of algae
Method: The efficacy in inhibiting growth of algae was determined in cylindrical vessels under intensive aeration. Into the vessels, there were introduced 100 ml of a nutrient solution to which increasing quantities of active substances had been added as well as 4 ml of a mixed suspension of Scenedesmus obliquus and Chlorella vulgaris.
The nutrition solution has the following composition:
These compounds were dissolved in 1000 ml of distilled water. The pH value of the nutrient solution was 7.2. The tests were carried out with the following concentration intervals of the active substance: 10 ppm, 5 ppm, 2.5 ppm, 2 ppm, 1.5 ppm, 1 ppm, 0.75 ppm, 0.5 ppm, and 0.25 ppm.

Row | MIC (Aspergillus niger) [µg/mL] | MIC (Escherichia coli [2]) [µg/mL] | MIC (Staphylococcus aureus [3]) [µg/mL] | MIC (Candida albicans) [µg/mL] | MIC [4] [µg/mL] | MIC [5] [µg/mL] | MIC (Pseudomonas aeruginosa [7]) [µg/mL] | MIC [9] [µg/mL] | SMILES | Sterilization Time (Escherichia coli [1]; 100 ppm in tap water) [min] | Sterilization Time (Escherichia coli [1]; 250 ppm in tap water) [min] | Sterilization Time (Escherichia coli [1]; 500 ppm in tap water) [min] | Sterilization Time (Pseudomonas aeruginosa [6]; 100 ppm in tap water) [min] | Sterilization Time (Pseudomonas aeruginosa [6]; 250 ppm in tap water) [min] | Sterilization Time (Pseudomonas aeruginosa [6]; 500 ppm in tap water) [min] | Sterilization Time (Staphylococcus aureus [8]; 100 ppm in tap water) [min] | Sterilization Time (Staphylococcus aureus [8]; 250 ppm in tap water) [min] | Sterilization Time (Staphylococcus aureus [8]; 500 ppm in tap water) [min] | MIC [10] [µg/mL]
1 | 100 | 100 | 50 | 50 | 25 | 25 | 500 |  | CCCCCCCCCCCCNC(=O)CN.Cl [Product A, N-glycyl-dodecylamine hydrochloride] | 20 | 10 | 10 | 60 | 20 | 10 | 10 | 5 | 5 | 
2 | 100 (≈ 438 µM) | 50 (≈ 219 µM) | 50 (≈ 219 µM) | 100 (≈ 438 µM) | 25 (≈ 109 µM) | 25 (≈ 109 µM) | 100 (≈ 438 µM) | 5 (≈ 21.9 µM) | CCCCCCCCCCNC(=O)CCN [Product B, 3-aminopropionic acid-decylamide] | 10 | 10 | 10 | 30 | 10 | 10 | 5 | 5 | 5 | 1 (≈ 4.38 µM)
3 | 250 (≈ 766 µM) | 25 (≈ 76.6 µM) | 25 (≈ 76.6 µM) | 100 (≈ 306 µM) | 10 (≈ 30.6 µM) | 10 (≈ 30.6 µM) | 1000 (≈ 3060 µM) | 2.5 (≈ 7.66 µM) | CCCCCCCCCCCCNC(=O)CCCCCN(C)C [Product C, 6-(N,N-dimethylamino)capronic acid-dodecylamide] | 10 | 5 | 5 | 30 | 10 | 5 | 5 | 2.5 | 2.5 | 0.75 (≈ 2.3 µM)
4 | 50 (≈ 167 µM) | 5 (≈ 16.7 µM) | 5 (≈ 16.7 µM) | 50 (≈ 167 µM) | 5 (≈ 16.7 µM) | 5 (≈ 16.7 µM) | 100 (≈ 335 µM) |  | CCCCCCCCCCCCNC(=O)CCCCCN [Product D, 6-aminocapronic acid-dodecylamide] |  |  |  |  |  |  |  |  |  | 
5 | 250 (≈ 607 µM) | 50 (≈ 121 µM) | 50 (≈ 121 µM) | 250 (≈ 607 µM) | 25 (≈ 60.7 µM) | 25 (≈ 60.7 µM) | 250 (≈ 607 µM) |  | CCCCCCCCCCCCNC(=O)CCCCCNC(=O)CCCCCN [Product E] |  |  |  |  |  |  |  |  |  | 
6 | 100 (≈ 306 µM) | 5 (≈ 15.3 µM) | 5 (≈ 15.3 µM) | 50 (≈ 153 µM) | 7.5 (≈ 23 µM) | 7.5 (≈ 23 µM) | 250 (≈ 766 µM) |  | CCCCCCCCCCCCCCNC(=O)CCCCCN [Product F] |  |  |  |  |  |  |  |  |  | 

Reference: patent US4022606A, “Antimicrobial use of ω-aminocarboxylic acid amides” (Henkel & Cie G.m.b.H., priority 1973, dated 1977)
